We go through three compounds from ChEMBL document CHEMBL4665643 (Bioorg Med Chem Lett, 2019).

Data set [1] addresses Insulin-like growth factor 1 receptor (Homo sapiens) (UniProt P08069). The data set is described as follows: Inhibition of recombinant human His-tagged IGF1R (960 to 1397 residues) expressed in baculovirus expression system using Tyr 01 as substrate at 0.1 uM incubated for 60 mins by Z'-Lyte assay relative to control.
The target of data set [2] is Cyclin-dependent kinase 1/cyclin B1 (Homo sapiens) (UniProt P06493+P14635). The data set is described as follows: Inhibition of recombinant human His-tagged full length CDK1/Cyclin B expressed in baculovirus expression system using Ser/Thr 18 as substrate at 0.1 uM incubated for 60 mins by Z'-Lyte assay relative to control.
Sequence of Cyclin-dependent kinase 1/cyclin B1 (Homo sapiens) (P06493 whole entry, looked up): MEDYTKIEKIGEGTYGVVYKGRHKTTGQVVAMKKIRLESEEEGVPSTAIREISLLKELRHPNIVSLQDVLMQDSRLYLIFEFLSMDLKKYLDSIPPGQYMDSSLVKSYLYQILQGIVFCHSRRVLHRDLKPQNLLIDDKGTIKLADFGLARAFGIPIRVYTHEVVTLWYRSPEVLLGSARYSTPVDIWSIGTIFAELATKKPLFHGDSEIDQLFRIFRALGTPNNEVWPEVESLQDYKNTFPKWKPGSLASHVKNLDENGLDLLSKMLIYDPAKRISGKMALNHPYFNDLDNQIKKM
Sequence of Cyclin-dependent kinase 1/cyclin B1 (Homo sapiens) (P14635 whole entry, looked up): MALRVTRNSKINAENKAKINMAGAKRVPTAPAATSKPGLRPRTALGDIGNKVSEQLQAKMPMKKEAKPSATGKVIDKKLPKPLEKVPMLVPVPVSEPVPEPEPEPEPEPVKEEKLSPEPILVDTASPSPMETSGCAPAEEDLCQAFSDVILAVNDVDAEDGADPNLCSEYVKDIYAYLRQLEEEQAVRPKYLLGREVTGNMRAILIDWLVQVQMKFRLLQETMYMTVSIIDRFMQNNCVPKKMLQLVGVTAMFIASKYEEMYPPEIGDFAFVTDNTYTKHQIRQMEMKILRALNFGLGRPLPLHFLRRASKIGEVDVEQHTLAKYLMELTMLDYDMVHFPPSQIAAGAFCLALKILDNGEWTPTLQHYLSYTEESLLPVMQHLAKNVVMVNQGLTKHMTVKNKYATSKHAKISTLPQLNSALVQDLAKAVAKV
Data set [3] addresses Tyrosine-protein kinase ABL1 (Homo sapiens) (UniProt P00519). The data set is described as follows: Inhibition of recombinant human His-tagged full length Abl expressed in baculovirus expression system using Tyr 02 as substrate at 0.1 uM incubated for 60 mins by Z'-Lyte assay relative to control.
Data set [4] is described as follows: Metabolic stability in human liver microsomes assessed as intrinsic clearance at 1 uM measured upto 60 mins by LC-MS/MS analysis. Conditions: read-out: CLH. The format is ADME, Microsome. Background: Microsomes from liver hold many membrane-bound enzymes, among them those of drug oxidation.
For data set [5], the target named is T1, Mitogen-activated protein kinase kinase kinase 5 (Homo sapiens) (UniProt Q99683).
T1 sequence (whole entry): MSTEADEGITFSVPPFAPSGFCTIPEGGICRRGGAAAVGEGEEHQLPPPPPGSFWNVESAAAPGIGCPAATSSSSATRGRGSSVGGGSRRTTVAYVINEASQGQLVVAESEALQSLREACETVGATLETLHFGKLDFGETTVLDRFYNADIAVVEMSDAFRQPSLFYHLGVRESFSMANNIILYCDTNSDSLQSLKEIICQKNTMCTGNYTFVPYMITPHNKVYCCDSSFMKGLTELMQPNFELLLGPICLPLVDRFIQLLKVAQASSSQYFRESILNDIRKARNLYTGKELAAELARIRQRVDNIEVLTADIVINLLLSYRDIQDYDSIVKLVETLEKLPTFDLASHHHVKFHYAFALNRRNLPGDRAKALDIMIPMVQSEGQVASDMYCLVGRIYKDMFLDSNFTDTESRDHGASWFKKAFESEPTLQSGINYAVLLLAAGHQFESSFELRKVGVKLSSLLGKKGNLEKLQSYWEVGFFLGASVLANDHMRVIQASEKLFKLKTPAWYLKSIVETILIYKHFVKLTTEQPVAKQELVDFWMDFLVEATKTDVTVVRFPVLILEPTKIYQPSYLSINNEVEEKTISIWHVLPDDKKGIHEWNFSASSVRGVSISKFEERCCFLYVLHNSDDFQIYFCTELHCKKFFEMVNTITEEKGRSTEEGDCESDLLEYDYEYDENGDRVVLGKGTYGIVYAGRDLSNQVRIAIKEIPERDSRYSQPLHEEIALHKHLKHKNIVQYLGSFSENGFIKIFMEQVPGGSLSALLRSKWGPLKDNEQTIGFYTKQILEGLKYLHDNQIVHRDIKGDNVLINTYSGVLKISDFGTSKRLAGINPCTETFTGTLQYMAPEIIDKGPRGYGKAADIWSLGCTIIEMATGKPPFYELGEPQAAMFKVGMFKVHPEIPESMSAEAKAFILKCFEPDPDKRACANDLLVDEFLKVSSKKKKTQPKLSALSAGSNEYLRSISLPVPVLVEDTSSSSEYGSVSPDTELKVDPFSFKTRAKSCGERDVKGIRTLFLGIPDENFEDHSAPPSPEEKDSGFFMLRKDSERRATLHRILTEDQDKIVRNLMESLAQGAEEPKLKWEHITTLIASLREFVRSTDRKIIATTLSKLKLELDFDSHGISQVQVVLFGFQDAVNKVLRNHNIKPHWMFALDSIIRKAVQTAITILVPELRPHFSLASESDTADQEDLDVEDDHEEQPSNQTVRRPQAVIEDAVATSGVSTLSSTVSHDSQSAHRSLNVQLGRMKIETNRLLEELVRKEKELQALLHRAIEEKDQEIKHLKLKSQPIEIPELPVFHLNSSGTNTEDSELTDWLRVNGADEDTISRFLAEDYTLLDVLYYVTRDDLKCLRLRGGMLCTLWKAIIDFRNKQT
The data set is described as follows: Inhibition of tracer 236 binding to recombinant human GST-tagged full length ASK1 expressed in baculovirus expression system at 0.1 uM incubated for 60 mins by Lanthascreen assay relative to control. Background: TR-FRET usually uses a lanthanide donor and a delayed reading to cut background.

In data set [6] the target is Tyrosine-protein kinase JAK1 (Homo sapiens, UniProt P23458). Conditions: dose 0.1 µM, time 60.0 min.
Sequence of Tyrosine-protein kinase JAK1 (P23458 whole entry): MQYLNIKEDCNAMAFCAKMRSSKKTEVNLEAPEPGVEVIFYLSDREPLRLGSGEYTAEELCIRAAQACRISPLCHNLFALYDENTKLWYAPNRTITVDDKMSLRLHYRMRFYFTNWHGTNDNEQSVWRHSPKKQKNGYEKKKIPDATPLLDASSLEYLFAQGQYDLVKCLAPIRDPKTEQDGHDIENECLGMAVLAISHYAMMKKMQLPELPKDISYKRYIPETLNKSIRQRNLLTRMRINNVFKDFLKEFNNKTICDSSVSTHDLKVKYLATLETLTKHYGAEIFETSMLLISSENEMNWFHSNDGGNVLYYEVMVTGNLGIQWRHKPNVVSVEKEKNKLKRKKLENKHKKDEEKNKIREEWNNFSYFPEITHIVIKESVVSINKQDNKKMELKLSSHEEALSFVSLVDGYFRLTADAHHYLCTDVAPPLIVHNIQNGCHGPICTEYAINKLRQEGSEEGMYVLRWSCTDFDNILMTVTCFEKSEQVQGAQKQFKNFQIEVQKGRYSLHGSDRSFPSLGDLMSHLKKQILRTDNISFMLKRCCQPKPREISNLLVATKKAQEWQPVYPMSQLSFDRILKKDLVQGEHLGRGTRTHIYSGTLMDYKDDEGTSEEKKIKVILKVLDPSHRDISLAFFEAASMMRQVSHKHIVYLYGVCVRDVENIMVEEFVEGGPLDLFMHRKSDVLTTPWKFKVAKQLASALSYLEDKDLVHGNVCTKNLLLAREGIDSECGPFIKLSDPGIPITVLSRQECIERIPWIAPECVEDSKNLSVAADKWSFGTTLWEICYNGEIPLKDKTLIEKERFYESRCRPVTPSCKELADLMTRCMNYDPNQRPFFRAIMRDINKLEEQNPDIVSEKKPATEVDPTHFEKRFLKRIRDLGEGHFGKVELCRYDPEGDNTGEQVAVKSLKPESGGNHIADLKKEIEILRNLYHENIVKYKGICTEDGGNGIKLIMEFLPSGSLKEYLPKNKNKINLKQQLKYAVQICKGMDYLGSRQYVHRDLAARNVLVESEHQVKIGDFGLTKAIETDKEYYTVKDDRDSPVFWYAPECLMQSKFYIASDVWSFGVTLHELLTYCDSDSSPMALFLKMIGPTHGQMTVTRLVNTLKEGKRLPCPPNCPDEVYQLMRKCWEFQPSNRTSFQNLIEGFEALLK
Data set [7] has as its target Tyrosine-protein kinase Yes (Homo sapiens) (UniProt P07947). Briefly: Inhibition of recombinant human GST-tagged full length YES expressed in baculovirus expression system using Tyr 02 as substrate at 0.1 uM incubated for 60 mins by Z'-Lyte assay relative to control.

The inhibition is the drop in the measured response relative to a control, in per cent.

Sequence of Insulin-like growth factor 1 receptor (Homo sapiens) (P08069 31-736 limits assumed): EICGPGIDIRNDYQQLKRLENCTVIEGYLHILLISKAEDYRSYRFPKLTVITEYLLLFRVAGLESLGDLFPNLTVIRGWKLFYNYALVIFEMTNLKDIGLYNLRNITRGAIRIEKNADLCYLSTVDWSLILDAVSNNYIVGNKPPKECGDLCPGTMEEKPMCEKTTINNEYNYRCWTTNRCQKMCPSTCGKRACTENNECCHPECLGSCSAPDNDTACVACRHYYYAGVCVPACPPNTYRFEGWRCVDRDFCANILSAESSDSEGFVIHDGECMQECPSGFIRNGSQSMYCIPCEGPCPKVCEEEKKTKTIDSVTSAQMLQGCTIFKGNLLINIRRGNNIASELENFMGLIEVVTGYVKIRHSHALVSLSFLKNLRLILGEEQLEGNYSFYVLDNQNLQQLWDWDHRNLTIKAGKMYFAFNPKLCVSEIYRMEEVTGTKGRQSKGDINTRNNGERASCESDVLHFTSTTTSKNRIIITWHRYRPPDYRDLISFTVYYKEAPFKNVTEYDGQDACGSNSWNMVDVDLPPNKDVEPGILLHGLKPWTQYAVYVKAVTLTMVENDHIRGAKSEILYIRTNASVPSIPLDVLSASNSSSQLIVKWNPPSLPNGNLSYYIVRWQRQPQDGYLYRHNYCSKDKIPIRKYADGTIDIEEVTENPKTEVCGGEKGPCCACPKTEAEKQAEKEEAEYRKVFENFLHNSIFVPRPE
Sequence of Insulin-like growth factor 1 receptor (Homo sapiens) (P08069 741-1367 limits assumed): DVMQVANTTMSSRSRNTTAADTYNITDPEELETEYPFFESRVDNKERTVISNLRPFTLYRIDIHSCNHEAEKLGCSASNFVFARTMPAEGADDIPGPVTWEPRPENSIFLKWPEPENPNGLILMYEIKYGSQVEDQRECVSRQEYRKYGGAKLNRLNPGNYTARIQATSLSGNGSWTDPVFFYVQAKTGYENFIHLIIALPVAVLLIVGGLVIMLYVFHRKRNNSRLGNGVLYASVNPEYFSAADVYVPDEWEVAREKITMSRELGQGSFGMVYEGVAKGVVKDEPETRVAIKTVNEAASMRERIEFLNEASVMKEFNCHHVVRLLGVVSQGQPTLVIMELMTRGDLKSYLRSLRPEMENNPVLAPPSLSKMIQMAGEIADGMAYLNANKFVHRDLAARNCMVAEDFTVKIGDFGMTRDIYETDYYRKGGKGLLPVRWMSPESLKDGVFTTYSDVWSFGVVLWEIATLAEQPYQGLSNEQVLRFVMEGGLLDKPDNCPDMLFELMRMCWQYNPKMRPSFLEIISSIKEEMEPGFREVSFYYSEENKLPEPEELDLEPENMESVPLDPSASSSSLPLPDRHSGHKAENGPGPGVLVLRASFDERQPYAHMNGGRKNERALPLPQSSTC
Sequence of Tyrosine-protein kinase Yes (Homo sapiens) (P07947 2-543 limits assumed): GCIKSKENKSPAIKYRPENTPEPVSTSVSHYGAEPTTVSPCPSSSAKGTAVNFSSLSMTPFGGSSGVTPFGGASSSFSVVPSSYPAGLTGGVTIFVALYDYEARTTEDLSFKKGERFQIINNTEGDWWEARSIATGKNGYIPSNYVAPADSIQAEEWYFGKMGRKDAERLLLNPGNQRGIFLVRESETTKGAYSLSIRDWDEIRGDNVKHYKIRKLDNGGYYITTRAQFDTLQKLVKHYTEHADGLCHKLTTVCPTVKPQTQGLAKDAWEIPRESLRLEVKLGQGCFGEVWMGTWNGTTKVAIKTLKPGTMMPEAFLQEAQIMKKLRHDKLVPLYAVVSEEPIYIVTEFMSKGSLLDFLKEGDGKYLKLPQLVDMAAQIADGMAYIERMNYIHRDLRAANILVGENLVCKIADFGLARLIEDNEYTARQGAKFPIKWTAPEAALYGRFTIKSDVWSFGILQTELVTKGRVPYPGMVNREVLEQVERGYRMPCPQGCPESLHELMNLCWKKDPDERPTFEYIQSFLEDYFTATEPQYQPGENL
Sequence of Tyrosine-protein kinase ABL1 (Homo sapiens) (P00519 whole entry): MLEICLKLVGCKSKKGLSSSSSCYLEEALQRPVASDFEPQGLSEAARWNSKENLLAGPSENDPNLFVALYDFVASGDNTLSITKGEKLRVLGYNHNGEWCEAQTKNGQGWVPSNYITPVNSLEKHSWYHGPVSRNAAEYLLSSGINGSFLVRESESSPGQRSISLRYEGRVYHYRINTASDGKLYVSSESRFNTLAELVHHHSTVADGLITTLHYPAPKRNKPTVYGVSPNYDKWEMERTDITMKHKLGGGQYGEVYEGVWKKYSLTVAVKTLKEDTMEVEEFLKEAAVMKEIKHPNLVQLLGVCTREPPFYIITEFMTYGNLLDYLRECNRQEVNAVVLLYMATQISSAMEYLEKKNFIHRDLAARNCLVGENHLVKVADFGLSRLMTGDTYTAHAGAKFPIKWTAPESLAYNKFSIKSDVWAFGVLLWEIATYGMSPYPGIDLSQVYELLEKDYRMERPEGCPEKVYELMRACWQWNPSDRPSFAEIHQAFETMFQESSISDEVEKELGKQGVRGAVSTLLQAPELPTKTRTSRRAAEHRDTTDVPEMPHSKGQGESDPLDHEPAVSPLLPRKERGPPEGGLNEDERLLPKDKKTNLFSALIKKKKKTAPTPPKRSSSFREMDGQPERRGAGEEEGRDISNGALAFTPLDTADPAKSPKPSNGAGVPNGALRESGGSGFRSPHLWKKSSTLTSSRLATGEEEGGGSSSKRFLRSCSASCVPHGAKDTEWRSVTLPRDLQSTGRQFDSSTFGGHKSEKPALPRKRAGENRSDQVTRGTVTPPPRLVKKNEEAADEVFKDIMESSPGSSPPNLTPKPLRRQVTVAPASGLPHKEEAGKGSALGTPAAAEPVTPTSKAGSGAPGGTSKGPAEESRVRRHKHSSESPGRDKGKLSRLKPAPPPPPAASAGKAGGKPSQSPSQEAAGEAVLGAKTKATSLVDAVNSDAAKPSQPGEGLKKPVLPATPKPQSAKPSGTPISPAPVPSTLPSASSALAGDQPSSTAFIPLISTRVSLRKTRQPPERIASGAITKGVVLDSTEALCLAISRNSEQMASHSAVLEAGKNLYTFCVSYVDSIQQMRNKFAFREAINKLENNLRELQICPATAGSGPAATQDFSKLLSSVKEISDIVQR

Consider `O=C(Nc1c[nH]nc1-c1cc(Cl)ccc1OC(F)F)c1cnn2cccnc12`, for which the inhibition in data set [1] was determined as 9%; in data set [2], 53%; in data set [3], 32%; in data set [5], 4%; in data set [6], 100%; in data set [7], 32%. For the same compound, the CLint scaled at 1 µM in data set [4] was determined as 14 mL/min/kg.

As for `O=C(Nc1c[nH]nc1-c1cc2ccccc2cc1OC(F)F)c1cnn2cccnc12`, the inhibition in data set [1] is 5%; in data set [2] it was 27%; in data set [3], 11%; in data set [5] it was -2%; in data set [6], 96%; in data set [7], 33%. Besides, the CLint scaled at 1 µM in data set [4] is 17 mL/min/kg.

In the case of `Cn1cc(NC(=O)c2cnn3cccnc23)c(-c2cc(Cl)ccc2OC(F)F)n1`, the inhibition in data set [1] was 8%; in data set [2], 4%; in data set [3], 10%; in data set [5], 2%; in data set [6], 96%; in data set [7] it was 30%. Moreover, the CLint scaled at 1 µM in data set [4] was found to be 15 mL/min/kg.
